Key:
Test in all cases: KinomeScan kinase panel, single concentration 10 µM
Format in all cases: binding
KinomeScan kinase panel [1] = molecular target: T1, KinomeScan kinase panel (Homo sapiens, UniProt O14965); settings: AURKA, 10 µM; read-out: score (%)
T1 construct: purchased DiscoveRx (KinomeScan)
T1 sequence (O14965 1-403): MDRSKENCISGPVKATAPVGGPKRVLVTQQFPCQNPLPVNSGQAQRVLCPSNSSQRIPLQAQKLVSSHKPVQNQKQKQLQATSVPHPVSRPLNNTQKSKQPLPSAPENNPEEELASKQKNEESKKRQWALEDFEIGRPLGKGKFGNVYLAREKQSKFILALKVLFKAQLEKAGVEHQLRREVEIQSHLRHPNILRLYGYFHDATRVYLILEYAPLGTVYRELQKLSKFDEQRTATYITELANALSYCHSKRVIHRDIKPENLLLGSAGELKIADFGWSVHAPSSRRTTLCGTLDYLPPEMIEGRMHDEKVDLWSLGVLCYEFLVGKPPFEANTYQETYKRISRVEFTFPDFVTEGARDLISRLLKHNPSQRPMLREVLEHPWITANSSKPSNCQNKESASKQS

KinomeScan kinase panel [2] = molecular target: T2, KinomeScan kinase panel (Homo sapiens, UniProt O15111); settings: IKK-alpha, 10 µM; read-out: score (%)
T2 construct: purchased DiscoveRx (KinomeScan)
T2 sequence (O15111 1-745): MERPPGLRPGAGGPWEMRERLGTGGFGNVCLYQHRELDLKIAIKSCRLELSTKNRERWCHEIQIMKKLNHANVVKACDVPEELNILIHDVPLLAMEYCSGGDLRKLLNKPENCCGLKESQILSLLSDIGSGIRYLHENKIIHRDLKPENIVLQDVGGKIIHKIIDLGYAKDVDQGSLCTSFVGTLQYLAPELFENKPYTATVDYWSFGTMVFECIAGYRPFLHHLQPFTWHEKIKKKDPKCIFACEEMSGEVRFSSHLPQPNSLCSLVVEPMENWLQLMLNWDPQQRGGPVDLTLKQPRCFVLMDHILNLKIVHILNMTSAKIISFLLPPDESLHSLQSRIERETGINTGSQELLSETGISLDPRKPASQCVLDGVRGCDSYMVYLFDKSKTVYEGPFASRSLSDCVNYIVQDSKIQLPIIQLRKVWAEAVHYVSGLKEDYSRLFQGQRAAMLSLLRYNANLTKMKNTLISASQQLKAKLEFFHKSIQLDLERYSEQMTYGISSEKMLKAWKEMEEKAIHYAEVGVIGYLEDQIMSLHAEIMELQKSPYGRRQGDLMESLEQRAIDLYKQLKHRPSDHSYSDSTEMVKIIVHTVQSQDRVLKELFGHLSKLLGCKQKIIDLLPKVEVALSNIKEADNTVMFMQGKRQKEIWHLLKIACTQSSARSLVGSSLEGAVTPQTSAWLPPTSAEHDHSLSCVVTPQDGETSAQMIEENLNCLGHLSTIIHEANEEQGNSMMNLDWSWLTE

KinomeScan kinase panel [3] = molecular target: T3, KinomeScan kinase panel (Homo sapiens, UniProt P49761); settings: CLK3, 10 µM; read-out: score (%)
T3 construct: purchased DiscoveRx (KinomeScan)

KinomeScan kinase panel [4] = molecular target: T4, KinomeScan kinase panel (Homo sapiens, UniProt P57059); settings: 10 µM
T4 construct: purchased DiscoveRx (KinomeScan)

KinomeScan kinase panel [5] = molecular target: T5, KinomeScan kinase panel (Homo sapiens, UniProt Q08345); settings: DDR1, 10 µM; read-out: score (%)
T5 construct: purchased DiscoveRx (KinomeScan)

KinomeScan kinase panel [6] = molecular target: T6, KinomeScan kinase panel (Homo sapiens, UniProt Q12851); settings: MAP4K2, 10 µM; read-out: score (%)
T6 construct: purchased DiscoveRx (KinomeScan)
T6 sequence (Q12851 1-820): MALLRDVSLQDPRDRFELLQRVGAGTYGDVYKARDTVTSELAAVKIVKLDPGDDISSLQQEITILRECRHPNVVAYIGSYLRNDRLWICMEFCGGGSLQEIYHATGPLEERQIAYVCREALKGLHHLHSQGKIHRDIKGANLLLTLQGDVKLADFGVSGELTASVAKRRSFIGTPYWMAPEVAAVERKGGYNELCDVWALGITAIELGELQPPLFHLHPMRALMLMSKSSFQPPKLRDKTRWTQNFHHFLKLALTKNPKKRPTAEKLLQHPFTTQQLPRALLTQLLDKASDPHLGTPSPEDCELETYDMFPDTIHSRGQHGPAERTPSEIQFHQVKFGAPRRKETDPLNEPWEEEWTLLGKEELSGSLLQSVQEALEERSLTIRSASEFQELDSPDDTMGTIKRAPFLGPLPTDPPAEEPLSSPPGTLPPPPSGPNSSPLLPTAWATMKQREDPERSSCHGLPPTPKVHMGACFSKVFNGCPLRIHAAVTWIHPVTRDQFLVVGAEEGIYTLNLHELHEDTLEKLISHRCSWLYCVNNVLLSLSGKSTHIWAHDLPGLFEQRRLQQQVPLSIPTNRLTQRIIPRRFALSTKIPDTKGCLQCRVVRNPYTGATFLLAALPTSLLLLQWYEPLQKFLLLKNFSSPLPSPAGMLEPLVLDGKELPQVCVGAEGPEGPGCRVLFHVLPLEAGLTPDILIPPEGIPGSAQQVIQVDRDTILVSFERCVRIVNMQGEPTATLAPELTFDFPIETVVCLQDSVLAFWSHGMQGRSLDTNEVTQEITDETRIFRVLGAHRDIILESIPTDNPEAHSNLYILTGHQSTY

KinomeScan kinase panel [7] = molecular target: T7, KinomeScan kinase panel (Homo sapiens, UniProt Q15831); settings: LKB1, 10 µM; read-out: score (%)
T7 construct: purchased DiscoveRx (KinomeScan)
T7 sequence (Q15831 1-433): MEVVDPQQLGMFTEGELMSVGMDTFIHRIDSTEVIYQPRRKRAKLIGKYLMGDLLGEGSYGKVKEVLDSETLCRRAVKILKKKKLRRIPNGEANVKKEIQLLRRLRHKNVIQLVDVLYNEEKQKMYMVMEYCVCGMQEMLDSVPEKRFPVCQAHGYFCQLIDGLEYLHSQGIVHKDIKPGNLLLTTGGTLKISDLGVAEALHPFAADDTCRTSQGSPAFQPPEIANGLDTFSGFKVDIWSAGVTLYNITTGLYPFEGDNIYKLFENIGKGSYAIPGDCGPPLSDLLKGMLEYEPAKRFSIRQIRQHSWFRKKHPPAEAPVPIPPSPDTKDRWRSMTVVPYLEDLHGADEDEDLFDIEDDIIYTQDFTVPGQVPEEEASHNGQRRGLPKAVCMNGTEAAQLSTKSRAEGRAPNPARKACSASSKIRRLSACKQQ

T5 sequence (Q08345 19-913): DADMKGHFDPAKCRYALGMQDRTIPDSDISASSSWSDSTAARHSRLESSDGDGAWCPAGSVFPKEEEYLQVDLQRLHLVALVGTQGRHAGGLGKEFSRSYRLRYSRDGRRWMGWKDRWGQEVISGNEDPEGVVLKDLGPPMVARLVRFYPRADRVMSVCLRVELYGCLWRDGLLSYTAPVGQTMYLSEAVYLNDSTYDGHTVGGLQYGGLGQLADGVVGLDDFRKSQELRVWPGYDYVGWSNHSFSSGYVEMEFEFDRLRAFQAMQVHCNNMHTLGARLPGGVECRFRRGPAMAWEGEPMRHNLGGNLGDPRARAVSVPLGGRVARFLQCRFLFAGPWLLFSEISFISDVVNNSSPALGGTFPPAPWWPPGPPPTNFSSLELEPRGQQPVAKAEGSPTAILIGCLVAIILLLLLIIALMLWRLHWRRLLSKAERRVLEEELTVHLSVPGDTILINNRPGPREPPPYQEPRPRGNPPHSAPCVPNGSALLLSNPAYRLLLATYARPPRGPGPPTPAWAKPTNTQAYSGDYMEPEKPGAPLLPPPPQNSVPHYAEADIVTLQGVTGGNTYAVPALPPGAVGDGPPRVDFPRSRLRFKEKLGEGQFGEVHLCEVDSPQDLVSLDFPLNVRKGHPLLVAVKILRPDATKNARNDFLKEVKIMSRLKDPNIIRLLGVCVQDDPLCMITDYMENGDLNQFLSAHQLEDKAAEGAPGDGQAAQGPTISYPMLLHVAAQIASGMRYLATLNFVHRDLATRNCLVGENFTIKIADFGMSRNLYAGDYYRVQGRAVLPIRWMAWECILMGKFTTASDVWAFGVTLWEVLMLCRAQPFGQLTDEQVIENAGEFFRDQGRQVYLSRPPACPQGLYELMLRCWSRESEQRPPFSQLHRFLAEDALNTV
T4 sequence (P57059 whole entry): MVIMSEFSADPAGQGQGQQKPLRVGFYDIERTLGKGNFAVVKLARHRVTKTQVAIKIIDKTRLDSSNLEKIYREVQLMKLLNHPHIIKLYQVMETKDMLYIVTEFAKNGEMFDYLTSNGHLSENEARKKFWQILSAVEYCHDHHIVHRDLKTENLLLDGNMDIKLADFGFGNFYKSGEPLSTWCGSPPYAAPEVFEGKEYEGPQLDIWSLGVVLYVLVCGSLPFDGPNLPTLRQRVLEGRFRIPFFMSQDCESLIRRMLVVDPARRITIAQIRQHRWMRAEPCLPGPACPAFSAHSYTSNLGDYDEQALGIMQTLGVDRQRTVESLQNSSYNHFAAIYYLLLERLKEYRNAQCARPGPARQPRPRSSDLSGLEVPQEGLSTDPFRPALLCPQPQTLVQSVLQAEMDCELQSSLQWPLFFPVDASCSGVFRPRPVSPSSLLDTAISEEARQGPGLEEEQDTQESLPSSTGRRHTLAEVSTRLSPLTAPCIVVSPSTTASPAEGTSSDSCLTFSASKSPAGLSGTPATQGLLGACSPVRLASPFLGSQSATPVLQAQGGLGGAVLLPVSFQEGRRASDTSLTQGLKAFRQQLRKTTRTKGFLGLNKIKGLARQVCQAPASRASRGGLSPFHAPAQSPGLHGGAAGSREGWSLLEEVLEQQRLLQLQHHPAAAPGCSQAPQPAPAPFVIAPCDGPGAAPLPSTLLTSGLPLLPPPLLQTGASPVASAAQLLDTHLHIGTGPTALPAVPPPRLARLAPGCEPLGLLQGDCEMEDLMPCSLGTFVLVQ
T3 sequence (P49761 whole entry): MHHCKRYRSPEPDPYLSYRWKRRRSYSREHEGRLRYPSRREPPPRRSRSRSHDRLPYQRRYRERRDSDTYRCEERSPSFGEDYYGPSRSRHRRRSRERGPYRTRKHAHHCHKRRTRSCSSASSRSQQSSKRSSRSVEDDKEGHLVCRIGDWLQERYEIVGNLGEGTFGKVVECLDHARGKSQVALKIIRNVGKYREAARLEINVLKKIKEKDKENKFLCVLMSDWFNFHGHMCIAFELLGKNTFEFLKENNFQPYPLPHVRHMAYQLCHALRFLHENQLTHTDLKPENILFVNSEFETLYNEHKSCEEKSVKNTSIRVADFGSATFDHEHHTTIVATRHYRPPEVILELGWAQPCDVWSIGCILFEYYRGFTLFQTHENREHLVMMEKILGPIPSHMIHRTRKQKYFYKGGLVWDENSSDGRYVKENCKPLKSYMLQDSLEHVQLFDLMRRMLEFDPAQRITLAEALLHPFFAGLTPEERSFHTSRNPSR

score (%) (KinomeScan kinase panel [4]; SNF1LK) | SMILES | remaining binding at 10 µM (KinomeScan kinase panel [1]) [%] | remaining binding at 10 µM (KinomeScan kinase panel [2]) [%] | remaining binding at 10 µM (KinomeScan kinase panel [3]) [%] | score (%) (KinomeScan kinase panel [4]; kinase SIK) | remaining binding at 10 µM (KinomeScan kinase panel [5]) [%] | remaining binding at 10 µM (KinomeScan kinase panel [6]) [%] | remaining binding at 10 µM (KinomeScan kinase panel [7]) [%]
 | CCN1CCN(Cc2ccc(NC(=O)c3ccc(C)c(NC(=O)c4cncc(-c5cccs5)c4)c3)cc2C(F)(F)F)CC1 [ALW-II-41-27] | > 30 | 3.3 | > 30 | 0.2 | 0.15 | 0.6 | > 30
0.3 | CCN1CCN(Cc2ccc(NC(=O)c3ccc(C)c(/C=C/c4cnc5[nH]ccc5c4Cl)c3)cc2C(F)(F)F)CC1 [HG-6-63-01, (E)-3-(2-(4-chloro-1H-pyrrolo[2,3-b]pyridin-5-yl)vinyl)-N-(4-((4-ethylpiperazin-1-yl)methyl)-3-(trifluoromethyl)phenyl)-4-methylbenzamide] | 24 | 0.75 | > 30 |  | 0.1 | 0.25 | 29
 | CCN1CCN(Cc2ccc(NC(=O)c3ccc(C)c(C#Cc4cccnc4)c3)cc2C(F)(F)F)CC1 [XMD15-44] | > 30 | 0 | > 30 | 0.45 | 0.05 | 0 | > 30

Reference: paper PMC4457528, “Identification of Novel Small Molecule Inhibitors of Oncogenic RET Kinase” (PLoS ONE, 2015)
